Legend:
Experiment in all cases: relative viability (nuclei count vs DMSO), 5 days (fraction); higher = more cells survive
Idelalisib + Foretinib = compound: CC[C@H](Nc1ncnc2[nH]cnc12)c1nc2cccc(F)c2c(=O)n1-c1ccccc1 [Idelalisib] + COc1cc2c(Oc3ccc(NC(=O)C4(C(=O)Nc5ccc(F)cc5)CC4)cc3F)ccnc2cc1OCCCN1CCOCC1 [Foretinib] (partner 0.25 µM)
Summary of the method: (§1)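 Relative viability is defined as nuclei in treated wells over nuclei in vehicle wells. Duplicate plates were run and medians reported. Lung cancer cell lines in 1536-well plates were dosed by pin tool one day after seeding, with one drug or with a fixed anchor-drug dose plus five library-drug doses (not always all listed) in √10 steps, and nuclei were counted after 5 days.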

Pemetrexed + Crizotinib = compound: Nc1nc2[nH]cc(CCc3ccc(C(=O)N[C@@H](CCC(=O)O)C(=O)O)cc3)c2c(=O)[nH]1 [Pemetrexed] + C[C@@H](Oc1cc(-c2cnn(C3CCNCC3)c2)cnc1N)c1c(Cl)ccc(F)c1Cl [Crizotinib] (partner 1 µM)
Summary of the method: as §1

Pemetrexed + Decitabine = compound: Nc1nc2[nH]cc(CCc3ccc(C(=O)N[C@@H](CCC(=O)O)C(=O)O)cc3)c2c(=O)[nH]1 [Pemetrexed] + Nc1ncn([C@H]2C[C@H](O)[C@@H](CO)O2)c(=O)n1 [Decitabine] (partner 2 µM)
Summary of the method: as §1

Idelalisib + Navitoclax = compound: CC[C@H](Nc1ncnc2[nH]cnc12)c1nc2cccc(F)c2c(=O)n1-c1ccccc1 [Idelalisib] + CC1(C)CCC(c2ccc(Cl)cc2)=C(CN2CCN(c3ccc(C(=O)NS(=O)(=O)c4ccc(N[C@H](CCN5CCOCC5)CSc5ccccc5)c(S(=O)(=O)C(F)(F)F)c4)cc3)CC2)C1 [Navitoclax] (partner 0.5 µM)
Summary of the method: as §1

Row | Cell Line | relative viability (Idelalisib + Foretinib; first compound 0.04 µM) | relative viability (Idelalisib + Foretinib; first compound 0.1265 µM) | relative viability (Idelalisib + Foretinib; first compound 0.4 µM) | relative viability (Idelalisib + Foretinib; first compound 1.265 µM) | relative viability (Idelalisib + Foretinib; first compound 4 µM) | relative viability (Pemetrexed + Crizotinib; first compound 0.002 µM) | relative viability (Pemetrexed + Crizotinib; first compound 0.006325 µM) | relative viability (Pemetrexed + Crizotinib; first compound 0.02 µM) | relative viability (Pemetrexed + Crizotinib; first compound 0.06325 µM) | relative viability (Pemetrexed + Crizotinib; first compound 0.2 µM) | relative viability (Pemetrexed + Decitabine; first compound 0.002 µM) | relative viability (Pemetrexed + Decitabine; first compound 0.006325 µM) | relative viability (Pemetrexed + Decitabine; first compound 0.02 µM) | relative viability (Pemetrexed + Decitabine; first compound 0.06325 µM) | relative viability (Pemetrexed + Decitabine; first compound 0.2 µM) | relative viability (Idelalisib + Navitoclax; first compound 0.04 µM) | relative viability (Idelalisib + Navitoclax; first compound 0.1265 µM) | relative viability (Idelalisib + Navitoclax; first compound 0.4 µM) | relative viability (Idelalisib + Navitoclax; first compound 1.265 µM) | relative viability (Idelalisib + Navitoclax; first compound 4 µM)
1 | NCI-H358 | 0.782 | 0.701 | 0.554 | 0.652 | 0.734 | 0.555 | 0.524 | 0.558 | 0.287 | 0.179 | 0.177 | 0.208 | 0.214 | 0.155 | 0.127 | – | – | – | – | –
2 | NCI-H2228 | 0.874 | 0.835 | 0.614 | 0.87 | 0.788 | 0.424 | 0.514 | 0.409 | 0.358 | 0.31 | – | – | – | – | – | 1.04 | 0.569 | 0.742 | 1.03 | 0.666
3 | NCI-H650 | 1.05 | 1.05 | 0.948 | 1.05 | 1 | 0.698 | 0.725 | 0.66 | 0.762 | 0.696 | 0.287 | 0.31 | – | 0.293 | 0.313 | – | – | – | – | –
4 | NCI-H1563 | 0.969 | 0.941 | 0.873 | 0.877 | 0.788 | 0.946 | 0.837 | 0.878 | 0.911 | 0.938 | – | – | – | – | – | – | – | – | – | –
5 | NCI-H1703 | 0.344 | 0.356 | 0.311 | 0.399 | 0.303 | 0.687 | 0.566 | 0.763 | 0.628 | 0.739 | – | – | – | – | – | 1.15 | 1.05 | 0.922 | 1.13 | 0.501
6 | NCI-H1299 | 1.14 | 1.16 | 1.11 | 1.16 | 1.2 | 0.962 | 0.942 | 0.98 | 0.881 | 0.927 | – | – | – | – | – | 1.04 | 1.01 | 1.07 | 1.12 | 1.08
7 | NCI-H661 | 1.12 | 1.06 | 1.02 | 1.01 | 1.02 | 1.06 | 1.03 | 0.949 | – | 0.944 | 0.586 | 0.513 | 0.646 | 0.608 | 0.559 | – | – | – | – | –
8 | NCI-H522 | – | – | – | – | – | – | – | – | – | – | 0.624 | 0.692 | 0.721 | 0.691 | 0.73 | – | – | – | – | –
9 | NCI-H1648 | – | – | – | – | – | – | – | – | – | – | 0.407 | 0.431 | 0.655 | 0.508 | 0.394 | – | – | – | – | –
10 | NCI-H1793 | 0.764 | 0.54 | 0.381 | 0.685 | 0.409 | – | – | – | – | – | 0.512 | 0.449 | 0.583 | 0.512 | 0.528 | 0.379 | 0.462 | 0.259 | 0.346 | 0.22
11 | NCI-H1623 | 0.849 | 0.8 | 0.754 | 0.706 | 0.846 | – | – | – | – | – | – | – | – | – | – | – | – | – | – | –

— the supplement of paper PMC10307832
